Measured values from patent US20010007020A1, “ANTIBODIES THAT BIND TO THE NIDOGEN-BINDING DOMAIN OF LAMININ, THEIR PRODUCTION AND USE” (HOECHST AKTIENGESELLSCHAFT, priority 1997, published 2001).

What was measured:
[1] = molecular target: laminin/nidogen binding (radioactively labeled nidogen to laminin P1-coated tubes); assay: coated-tube inhibition assay, simultaneous inhibition; set-up: species or system human; settings: simultaneous assay type
Method: (§1) The inhibitory activity of the affinity-purified antibodies can be identified by means of a coated-tube assay which measures the binding of radioactively labeled nidogen to (human placental) laminin P1-coated tubes in the presence of the antibodies.
(§2) Recombinantly produced human nidogen (35 μg, for description of the clone and culturing and purification conditions, see Mayer, U. et al. (1995) Eur. J. Biochem. 227:681-686) was dissolved in 250 μl of PBS, and 0.405 mCi (=15 Mbq) of Na iodide (^125I) solution (=1.55 μl, Nordion Europe), 10 μl of 0.5 M Na phosphate, pH 7.4, and 40 μg of chloramine T (N-chloro-4-toluenesulfonamide sodium salt, Merck) in 100 μl of 0.05 M Na phosphate, pH 7.4, were added to the solution. The reaction took place for 60 seconds at room temperature and was stopped by adding a solution of 40 μg of Na metabisulfite (Riedel-de-Haen) in 100 μl of 0.05 M Na phosphate, pH 7.4. This addition was made in at most 30 seconds and 900 μl of 1% BSA (Sigma) in PBS were then added to the mixture. Free radioactivity and excess salts were separated off by means of molecular sieve chromatography using a PD 10 column (Pharmacia). The iodinated nidogen, which was eluted in PBS, was pooled and diluted with 1% BSA/0.05 M Na phosphate/0.01% Na azide, pH 7.4, such that a concentration of 50 ng/ml was obtained. […]
Target sequence in this assay (P11047 773-934 limits assumed, one chain of several): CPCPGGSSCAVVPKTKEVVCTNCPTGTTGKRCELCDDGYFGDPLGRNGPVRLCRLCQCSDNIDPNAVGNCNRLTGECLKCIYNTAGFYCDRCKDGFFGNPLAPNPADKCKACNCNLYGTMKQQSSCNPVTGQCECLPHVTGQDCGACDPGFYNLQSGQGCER

[2] = molecular target: laminin/nidogen binding (radioactively labeled nidogen to laminin P1-coated tubes); assay: coated-tube inhibition assay, sequential inhibition; set-up: species or system human
Method: as §1, §2
Inhibition assay using “laminin-mimetic” structures (sequential inhibition) 200 μl of iodinated nidogen (approx. 10 ng, approx. 40,000 counts per min) and 200 μl of the inhibitor (e.g. peptides which can be derived from the laminin γ1 III 4 domain) or standards (laminin γ1 III 3-5) were shaken in a reaction vessel at room temperature. […] Finally, the solution was tipped out and the tubes were washed twice with 1 ml of PBS/0.04% Tween 20, after which the bound radioactivity (nidogen) was measured in a gamma counter. The quantity of bound nidogen in the solutions containing inhibitor was related to that of the nidogen when no inhibitor was added. […]

laminin P1 = assay: BIAcore binding kinetics on immobilized laminin P1; settings: 20 μg/ml; matrix with 4000 RU laminin P1
Chain of laminin P1 (P11047 773-934 limits assumed): as the sequence (P11047 773-934 limits assumed, one chain of several) above
Text: Biospecific interactions can be monitored on-line using the BIAcore® system from Pharmacia Biosensor. The principle of the measurement is based on an optical phenomenon (surface plasmon resonance) which is affected by the mass which is bound on a gold film. Expressed in simple terms, the system is miniaturized affinity chromatography on a gold sensor surface. The quantity of specifically bound ligand can be depicted visually in the form of a resonance signal (Chaiken, I. et al. (1992) Anal. Biochem. 201:197-201; Karisson, R. et al. (1992) in: Structure of Antigens; (Ed.: van Regenmortel). pp. 127-148; CRC Press, Boca Raton, Fla.)
Laminin P1 was immobilized, at a concentration of 200 μg/ml in 10 mM Na acetate, pH 4.0, on the sensor chip in accordance with the instructions in the user manual. A matrix containing 4000 RU of bound laminin P1 is obtained. A double impulse of in each case 4 μl of 100 mM HCl can be carried out in order to regenerate the affinity matrix.
The fact that it was still not possible to observe any transition to the equilibrium state after 1400 seconds can be an expression of the fact that the specific peptide sequence of laminin P1 which is responsible for binding nidogen was readily available to the antibodies. The antibodies bound to this sequence irrespective of whether it was in the biologically active conformation or in a different conformation. […]

[3] = sequential assay type, read-out: IC50% inhibition of laminin/nidogen binding

IC50 [1] [µM]	IC50 ([2]; in the assay described here, shortened incubation times, variant not stated, read-out: IC50%) [µM]	IC50 [2, 3] [µM]	bound amount at transition to the saturation phase (laminin P1) [RU]	Molecule
60	60	60	–	DNIDPNAVGNL [(1), peptide used for immunization]
20	–	20	–	DNIDPNAVGNLKCIYNTAGFYCDR [(2), peptide used for immunization]
–	–	–	600	nidogen: recombinantly produced human nidogen, 160 kDa glycoprotein (protein, UniProt P14543 29-1247, looked up) Nidogen-1: LSRQELFPFGPGQGDLELEDGDDFVSPALELSGALRFYDRSDIDAVYVTTNGIIATSEPPAKESHPGLFPPTFGAVAPFLADLDTTDGLGKVYYREDLSPSITQRAAECVHRGFPEISFQPSSAVVVTWESVAPYQGPSRDPDQKGKRNTFQAVLASSDSSSYAIFLYPEDGLQFHTTFSKKENNQVPAVVAFSQGSVGFLWKSNGAYNIFANDRESVENLAKSSNSGQQGVWVFEIGSPATTNGVVPADVILGTEDGAEYDDEDEDYDLATTRLGLEDVGTTPFSYKALRRGGADTYSVPSVLSPRRAATERPLGPPTERTRSFQLAVETFHQQHPQVIDVDEVEETGVVFSYNTDSRQTCANNRHQCSVHAECRDYATGFCCSCVAGYTGNGRQCVAEGSPQRVNGKVKGRIFVGSSQVPIVFENTDLHSYVVMNHGRSYTAISTIPETVGYSLLPLAPVGGIIGWMFAVEQDGFKNGFSITGGEFTRQAEVTFVGHPGNLVIKQRFSGIDEHGHLTIDTELEGRVPQIPFGSSVHIEPYTELYHYSTSVITSSSTREYTVTEPERDGASPSRIYTYQWRQTITFQECVHDDSRPALPSTQQLSVDSVFVLYNQEEKILRYALSNSIGPVREGSPDALQNPCYIGTHGCDTNAACRPGPRTQFTCECSIGFRGDGRTCYDIDECSEQPSVCGSHTICNNHPGTFRCECVEGYQFSDEGTCVAVVDQRPINYCETGLHNCDIPQRAQCIYTGGSSYTCSCLPGFSGDGQACQDVDECQPSRCHPDAFCYNTPGSFTCQCKPGYQGDGFRCVPGEVEKTRCQHEREHILGAAGATDPQRPIPPGLFVPECDAHGHYAPTQCHGSTGYCWCVDRDGREVEGTRTRPGMTPPCLSTVAPPIHQGPAVPTAVIPLPPGTHLLFAQTGKIERLPLEGNTMRKTEAKAFLHVPAKVIIGLAFDCVDKMVYWTDITEPSIGRASLHGGEPTTIIRQDLGSPEGIAVDHLGRNIFWTDSNLDRIEVAKLDGTQRRVLFETDLVNPRGIVTDSVRGNLYWTDWNRDNPKIETSYMDGTNRRILVQDDLGLPNGLTFDAFSSQLCWVDAGTNRAECLNPSQPSRRKALEGLQYPFAVTSYGKNLYFTDWKMNSVVALDLAISKETDAFQPHKQTRLYGITTALSQCPQGHNYCSVNNGGCTHLCLATPGSRTCRCPDNTLGVDCIEQK
